Source: paper PMC9841523 (Journal of Medicinal Chemistry, 2022)
pIC50: −log10 of the molar value.

Assays:
[1] = test system: RSK1 domain1, RSK2 domain1, RSK3 domain1; assay: KiNativ kinase panel; type: cell-based, human; conditions: 1 μM; MCF-7 Cells; Lys2; DLKPENILLDEEGHIK
Wnk1, Wnk2, Wnk3 = assay: KiNativ kinase panel; type: cell-based, human; conditions: 1 μM; MCF-7 Cells; Lys2; DLKCDNIFITGPTGSVK
Wnk1, Wnk2, Wnk4 = assay: KiNativ kinase panel; type: cell-based, human; conditions: 1 μM; MCF-7 Cells; Activation Loop; IGDLGLATLKR
ROCK1, ROCK2 = assay: KiNativ kinase panel; type: cell-based, human; conditions: 1 μM; MCF-7 Cells; Lys1; VYAMKLLSK
hERG potassium channel = hERG potassium channel (Homo sapiens, UniProt Q12809); assay: Eurofins Safety Screen 44; conditions: probe [3H] Dofetilide
[2] = target: T1, β2(h) (antagonist radioligand) (Homo sapiens, UniProt P07550); assay: Eurofins Safety Screen 44; type: binding; conditions: read-out: % Inhibition of Control Values
T1 construct: purchased ActivX Biosciences (KiNativ)

[3] = test system: Safety Screen 44 off-targets; assay: Eurofins Safety Screen 44, whole panel; conditions: 10 µM
[4] = target: T2, MAO-A (antagonist radioligand) (Rattus norvegicus, UniProt P21396); assay: Eurofins Safety Screen 44; type: binding; conditions: read-out: % Inhibition of Control Values
T2 construct: purchased ActivX Biosciences (KiNativ)

[5] = test system: 4EBP1 T37/T46 phosphorylation (mTORC1); assay: AlphaLISA/MSD analysis of 4EBP1 phosphorylation in MDA-MB-468 cells; type: cell-based; conditions: Homo sapiens, MDA-MB-468, read-out: p4EBP1 IC50
[6] = target: T3, M2 (h) (antagonist radioligand) (Homo sapiens, UniProt P08172); assay: Eurofins Safety Screen 44; type: binding; conditions: read-out: % Inhibition of Control Values
T3 construct: purchased ActivX Biosciences (KiNativ)

[7] = target: T4, H2(h) (antagonist radioligand) (Homo sapiens, UniProt P25021); assay: Eurofins Safety Screen 44; type: binding; conditions: read-out: % Inhibition of Control Values
T4 construct: purchased ActivX Biosciences (KiNativ)

[8] = target: T5, μ (MOP) (h) (agonist radioligand) (Homo sapiens, UniProt P35372); assay: Eurofins Safety Screen 44; type: binding; conditions: read-out: % Inhibition of Control Values
T5 construct: purchased ActivX Biosciences (KiNativ)

[9] = test system: NMDA (antagonist radioligand); assay: Eurofins Safety Screen 44; type: binding; conditions: 10 µM
[10] = target: T6, D2S(h) (agonist radioligand) (Homo sapiens, UniProt P14416); assay: Eurofins Safety Screen 44; type: binding; conditions: read-out: % Inhibition of Control Values
T6 construct: purchased ActivX Biosciences (KiNativ)

[11] = target: T7, CCK1 (CCKA) (h) (agonist radioligand) (Homo sapiens, UniProt P32238); assay: Eurofins Safety Screen 44; type: binding; conditions: read-out: % Inhibition of Control Values
T7 construct: purchased ActivX Biosciences (KiNativ)

[12] = target: T8, D1(h) (antagonist radioligand) (Homo sapiens, UniProt P21728); assay: Eurofins Safety Screen 44; type: binding; conditions: read-out: % Inhibition of Control Values
T8 construct: purchased ActivX Biosciences (KiNativ)

PDE3A (h) = target: T9, PDE3A (h) (Homo sapiens, UniProt Q14432); assay: Eurofins Safety Screen 44; type: biochemical; conditions: read-out: % Inhibition of Control Values
T9 construct: Eurofins (ran the panel)

[13] = target: T10, H1(h) (antagonist radioligand) (Homo sapiens, UniProt P35367); assay: Eurofins Safety Screen 44; type: binding; conditions: read-out: % Inhibition of Control Values
T10 construct: purchased ActivX Biosciences (KiNativ)

[14] = target: T11, dopamine transporter(h) (antagonist radioligand) (Homo sapiens, UniProt Q01959); assay: Eurofins Safety Screen 44; type: binding; conditions: read-out: % Inhibition of Control Values
T11 construct: Eurofins (ran the panel)

COX2(h) = target: T12, COX2(h) (Homo sapiens, UniProt P35354); assay: Eurofins Safety Screen 44; type: biochemical; conditions: read-out: % Inhibition of Control Values
T12 construct: Eurofins (ran the panel)

PDE4D2 (h) = target: T13, PDE4D2 (h) (Homo sapiens, UniProt Q08499); assay: Eurofins Safety Screen 44; type: biochemical; conditions: read-out: % Inhibition of Control Values
T13 construct: Eurofins (ran the panel)

[15] = target: T14, ETA(h) (agonist radioligand) (Homo sapiens, UniProt P25101); assay: Eurofins Safety Screen 44; type: binding; conditions: read-out: % Inhibition of Control Values
T14 construct: purchased ActivX Biosciences (KiNativ)

[16] = target: T15, M1(h) (antagonist radioligand) (Homo sapiens, UniProt P11229); assay: Eurofins Safety Screen 44; type: binding; conditions: read-out: % Inhibition of Control Values
T15 construct: purchased ActivX Biosciences (KiNativ)

p-P70S6K Thr389 = assay: AlphaLISA/MSD analysis of S6K phosphorylation in MDA-MB-468 cells; type: cell-based; conditions: Homo sapiens, MDA-MB-468, read-out: pS6K IC50
[17] = target: T16, kappa (h) (KOP) (agonist radioligand) (Homo sapiens, UniProt P41145); assay: Eurofins Safety Screen 44; type: binding; conditions: read-out: % Inhibition of Control Values
T16 construct: purchased ActivX Biosciences (KiNativ)

[18] = target: T17, 5-HT3(h) (antagonist radioligand) (Homo sapiens, UniProt P46098); assay: Eurofins Safety Screen 44; type: binding; conditions: read-out: % Inhibition of Control Values
T17 construct: purchased ActivX Biosciences (KiNativ)

[19] = target: T18, norepinephrine transporter(h) (antagonist radioligand) (Homo sapiens, UniProt P23975); assay: Eurofins Safety Screen 44; type: binding; conditions: read-out: % Inhibition of Control Values
T18 construct: purchased ActivX Biosciences (KiNativ)

[20] = target: T19, 5-HT transporter (h) (antagonist radioligand) (Homo sapiens, UniProt P31645); assay: Eurofins Safety Screen 44; type: binding; conditions: read-out: % Inhibition of Control Values
T19 construct: Eurofins (ran the panel)

[21] = target: T20, 5-HT1A(h) (agonist radioligand) (Homo sapiens, UniProt P08908); assay: Eurofins Safety Screen 44; type: binding; conditions: read-out: % Inhibition of Control Values
T20 construct: purchased ActivX Biosciences (KiNativ)

[22] = target: T21, α2A(h) (antagonist radioligand) (Homo sapiens, UniProt P08913); assay: Eurofins Safety Screen 44; type: binding; conditions: read-out: % Inhibition of Control Values
T21 construct: purchased ActivX Biosciences (KiNativ)

[23] = test system: Na+ channel (site 2) (antagonist radioligand); assay: Eurofins Safety Screen 44; type: binding; conditions: 10 µM

T14 sequence (P25101 21-427): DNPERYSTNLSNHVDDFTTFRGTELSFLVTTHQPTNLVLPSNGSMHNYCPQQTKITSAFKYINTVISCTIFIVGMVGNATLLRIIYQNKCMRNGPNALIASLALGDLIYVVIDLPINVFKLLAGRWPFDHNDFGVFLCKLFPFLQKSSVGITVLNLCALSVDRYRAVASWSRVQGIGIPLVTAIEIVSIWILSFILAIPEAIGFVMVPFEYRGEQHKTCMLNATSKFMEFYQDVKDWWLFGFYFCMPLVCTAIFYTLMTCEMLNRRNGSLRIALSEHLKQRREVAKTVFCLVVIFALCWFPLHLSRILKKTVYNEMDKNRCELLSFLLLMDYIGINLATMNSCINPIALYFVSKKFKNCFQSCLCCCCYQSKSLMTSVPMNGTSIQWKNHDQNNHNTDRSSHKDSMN
T10 sequence (P35367 whole entry): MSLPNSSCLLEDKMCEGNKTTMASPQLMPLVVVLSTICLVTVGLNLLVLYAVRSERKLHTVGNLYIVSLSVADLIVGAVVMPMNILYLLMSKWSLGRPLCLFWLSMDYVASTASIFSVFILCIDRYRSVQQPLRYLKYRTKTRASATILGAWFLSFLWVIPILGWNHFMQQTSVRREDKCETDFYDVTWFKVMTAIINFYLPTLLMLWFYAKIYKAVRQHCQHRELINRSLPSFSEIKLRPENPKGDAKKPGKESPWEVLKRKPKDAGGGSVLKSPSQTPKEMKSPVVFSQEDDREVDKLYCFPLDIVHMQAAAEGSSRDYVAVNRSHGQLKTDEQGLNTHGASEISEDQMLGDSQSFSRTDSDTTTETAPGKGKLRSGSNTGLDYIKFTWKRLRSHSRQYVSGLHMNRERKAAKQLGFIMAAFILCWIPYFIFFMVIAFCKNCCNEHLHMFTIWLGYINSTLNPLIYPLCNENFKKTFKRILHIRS
T8 sequence (P21728 whole entry): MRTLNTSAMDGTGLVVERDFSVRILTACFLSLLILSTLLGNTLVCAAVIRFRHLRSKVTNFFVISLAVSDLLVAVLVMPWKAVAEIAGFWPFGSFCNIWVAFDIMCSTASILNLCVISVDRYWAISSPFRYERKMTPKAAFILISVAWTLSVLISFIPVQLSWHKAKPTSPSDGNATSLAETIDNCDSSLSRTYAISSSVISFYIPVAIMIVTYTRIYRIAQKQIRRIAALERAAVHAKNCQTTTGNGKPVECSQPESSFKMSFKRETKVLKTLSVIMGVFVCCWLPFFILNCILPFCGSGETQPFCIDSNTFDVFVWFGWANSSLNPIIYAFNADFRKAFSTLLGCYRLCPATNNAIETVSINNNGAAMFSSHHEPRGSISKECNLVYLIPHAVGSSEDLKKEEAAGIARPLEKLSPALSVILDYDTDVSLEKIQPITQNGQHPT
T6 sequence (P14416 1-414 isoform P14416-2): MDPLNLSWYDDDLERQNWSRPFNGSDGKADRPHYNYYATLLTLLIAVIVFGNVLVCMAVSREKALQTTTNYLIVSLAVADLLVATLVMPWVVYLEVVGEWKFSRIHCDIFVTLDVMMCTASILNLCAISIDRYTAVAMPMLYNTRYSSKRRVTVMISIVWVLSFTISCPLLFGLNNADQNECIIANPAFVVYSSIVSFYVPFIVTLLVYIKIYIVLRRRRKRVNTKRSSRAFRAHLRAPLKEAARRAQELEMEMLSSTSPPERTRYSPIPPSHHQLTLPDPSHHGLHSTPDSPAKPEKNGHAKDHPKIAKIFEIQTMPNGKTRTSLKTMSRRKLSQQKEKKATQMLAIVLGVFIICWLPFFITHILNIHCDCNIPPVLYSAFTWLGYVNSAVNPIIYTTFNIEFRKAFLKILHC
T5 sequence (P35372 whole entry): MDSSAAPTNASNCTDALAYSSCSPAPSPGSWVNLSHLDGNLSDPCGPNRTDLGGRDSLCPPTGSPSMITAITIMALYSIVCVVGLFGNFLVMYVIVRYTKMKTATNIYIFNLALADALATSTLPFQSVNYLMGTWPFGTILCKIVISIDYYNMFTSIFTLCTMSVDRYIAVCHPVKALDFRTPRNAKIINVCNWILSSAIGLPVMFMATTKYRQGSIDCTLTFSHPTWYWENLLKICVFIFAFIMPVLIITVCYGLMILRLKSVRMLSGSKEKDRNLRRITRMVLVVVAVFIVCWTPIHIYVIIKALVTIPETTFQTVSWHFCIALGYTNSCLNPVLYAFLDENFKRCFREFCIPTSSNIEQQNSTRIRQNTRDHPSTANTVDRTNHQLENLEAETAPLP
Chain of hERG potassium channel (Q12809 whole entry): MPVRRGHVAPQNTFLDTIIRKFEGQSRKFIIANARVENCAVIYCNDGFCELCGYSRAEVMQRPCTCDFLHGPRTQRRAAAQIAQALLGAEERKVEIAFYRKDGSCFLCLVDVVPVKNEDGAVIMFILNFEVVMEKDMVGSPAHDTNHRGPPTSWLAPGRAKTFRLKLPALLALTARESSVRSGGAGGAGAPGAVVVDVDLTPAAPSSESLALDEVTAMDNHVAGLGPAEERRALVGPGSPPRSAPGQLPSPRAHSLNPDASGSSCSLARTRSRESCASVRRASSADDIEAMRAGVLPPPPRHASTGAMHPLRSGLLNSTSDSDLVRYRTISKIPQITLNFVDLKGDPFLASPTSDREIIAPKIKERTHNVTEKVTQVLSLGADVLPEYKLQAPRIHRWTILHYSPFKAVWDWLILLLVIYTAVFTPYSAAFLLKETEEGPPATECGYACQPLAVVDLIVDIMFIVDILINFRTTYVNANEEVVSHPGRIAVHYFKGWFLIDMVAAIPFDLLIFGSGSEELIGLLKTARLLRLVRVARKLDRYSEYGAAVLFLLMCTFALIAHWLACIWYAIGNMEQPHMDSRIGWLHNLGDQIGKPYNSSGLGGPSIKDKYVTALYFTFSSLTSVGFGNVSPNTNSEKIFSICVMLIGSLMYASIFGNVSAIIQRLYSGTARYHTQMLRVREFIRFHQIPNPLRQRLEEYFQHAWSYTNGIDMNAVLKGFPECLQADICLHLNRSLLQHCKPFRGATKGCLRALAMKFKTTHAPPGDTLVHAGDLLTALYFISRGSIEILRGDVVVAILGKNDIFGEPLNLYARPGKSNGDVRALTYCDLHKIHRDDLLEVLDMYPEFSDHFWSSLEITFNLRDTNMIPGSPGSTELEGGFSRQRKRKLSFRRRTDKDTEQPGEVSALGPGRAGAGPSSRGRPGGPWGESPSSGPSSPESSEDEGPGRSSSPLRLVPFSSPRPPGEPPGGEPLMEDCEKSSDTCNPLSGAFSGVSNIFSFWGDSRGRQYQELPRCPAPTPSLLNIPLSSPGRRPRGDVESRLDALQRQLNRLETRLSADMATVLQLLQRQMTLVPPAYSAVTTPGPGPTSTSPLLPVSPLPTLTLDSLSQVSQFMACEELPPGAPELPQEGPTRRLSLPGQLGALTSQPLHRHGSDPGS
T18 sequence (P23975 whole entry): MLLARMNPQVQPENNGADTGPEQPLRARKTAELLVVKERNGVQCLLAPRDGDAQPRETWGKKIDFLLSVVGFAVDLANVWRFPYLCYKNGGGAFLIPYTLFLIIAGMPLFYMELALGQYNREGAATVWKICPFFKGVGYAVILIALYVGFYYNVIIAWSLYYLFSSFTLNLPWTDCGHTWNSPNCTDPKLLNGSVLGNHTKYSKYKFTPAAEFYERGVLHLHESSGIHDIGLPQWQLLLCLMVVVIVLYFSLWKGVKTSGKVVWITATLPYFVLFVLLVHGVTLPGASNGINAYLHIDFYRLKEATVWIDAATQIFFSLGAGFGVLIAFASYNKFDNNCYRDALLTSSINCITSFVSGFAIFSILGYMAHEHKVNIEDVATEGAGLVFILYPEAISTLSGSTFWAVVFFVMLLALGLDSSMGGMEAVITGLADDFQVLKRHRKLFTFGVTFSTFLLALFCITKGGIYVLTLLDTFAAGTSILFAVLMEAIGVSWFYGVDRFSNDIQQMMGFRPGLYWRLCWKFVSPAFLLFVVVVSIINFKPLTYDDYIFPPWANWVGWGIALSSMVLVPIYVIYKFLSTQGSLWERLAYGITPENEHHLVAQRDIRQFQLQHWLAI
T21 sequence (P08913 whole entry): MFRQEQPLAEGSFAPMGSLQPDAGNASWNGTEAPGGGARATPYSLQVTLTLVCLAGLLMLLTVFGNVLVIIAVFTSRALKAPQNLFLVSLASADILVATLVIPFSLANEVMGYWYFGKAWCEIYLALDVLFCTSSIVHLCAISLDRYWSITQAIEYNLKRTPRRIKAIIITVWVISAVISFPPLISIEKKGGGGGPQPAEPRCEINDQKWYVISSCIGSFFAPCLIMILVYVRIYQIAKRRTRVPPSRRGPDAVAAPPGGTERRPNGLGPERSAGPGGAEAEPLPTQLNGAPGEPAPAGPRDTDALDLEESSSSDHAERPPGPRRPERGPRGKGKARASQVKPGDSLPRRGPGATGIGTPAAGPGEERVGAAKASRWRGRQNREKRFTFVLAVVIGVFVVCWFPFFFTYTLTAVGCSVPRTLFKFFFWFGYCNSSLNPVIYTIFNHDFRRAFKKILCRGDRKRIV
T3 sequence (P08172 whole entry): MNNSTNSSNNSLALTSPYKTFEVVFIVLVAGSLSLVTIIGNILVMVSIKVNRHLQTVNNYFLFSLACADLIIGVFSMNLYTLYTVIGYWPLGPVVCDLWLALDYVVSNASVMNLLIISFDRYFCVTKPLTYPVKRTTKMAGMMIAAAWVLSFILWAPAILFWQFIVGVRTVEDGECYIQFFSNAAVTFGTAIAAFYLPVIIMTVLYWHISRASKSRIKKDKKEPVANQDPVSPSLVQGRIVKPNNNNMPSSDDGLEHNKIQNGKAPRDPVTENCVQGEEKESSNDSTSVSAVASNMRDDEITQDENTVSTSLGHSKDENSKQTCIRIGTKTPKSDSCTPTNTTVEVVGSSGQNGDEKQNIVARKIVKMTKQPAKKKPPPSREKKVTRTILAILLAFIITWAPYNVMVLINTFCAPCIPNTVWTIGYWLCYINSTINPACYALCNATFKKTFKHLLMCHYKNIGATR

Compound: CO[C@H]1C[C@@H]2CC[C@@H](C)[C@@](O)(O2)C(=O)C(=O)N2CCCC[C@H]2C(=O)O[C@H]([C@H](C)C[C@@H]2CC[C@@H](OC(=O)NCCOCCOCCOCCOCCOCCOCCOCCOCCC(=O)NCCS(=O)(=O)c3ccc(C(=O)N4CCOc5ccc(-c6ccc(N)nc6)cc5C4)c(C)c3F)[C@H](OC)C2)C[C@@H](O)[C@H](C)/C=C(\C)[C@@H](O)[C@@H](OC)C(=O)[C@H](C)C[C@H](C)/C=C/C=C/C=C/1C [compound 40]
- KiNativ Kinase Panel Data [1]: 27.4
- KiNativ Kinase Panel Data (Wnk1, Wnk2, Wnk3): -40.3
- KiNativ Kinase Panel Data (Wnk1, Wnk2, Wnk4): -17.4
- KiNativ Kinase Panel Data (ROCK1, ROCK2): -42.0

Compound: CO[C@H]1C[C@@H]2CC[C@@H](C)[C@@](O)(O2)C(=O)C(=O)N2CCCC[C@H]2C(=O)O[C@H]([C@H](C)C[C@@H]2CC[C@@H](OC(=O)NCCOCCOCCOCCOCCOCCOCCOCCOCCC(=O)N3CCc4cc(Cn5nc(-c6ccc7oc(N)nc7c6)c6c(N)ncnc65)ccc4C3)[C@H](OC)C2)C[C@@H](O)[C@H](C)/C=C(\C)[C@@H](O)[C@@H](OC)C(=O)[C@H](C)C[C@H](C)/C=C/C=C/C=C/1C [compound 38]
- inhibition at 10 µM (hERG potassium channel): -1.2%
- inhibition at 10 µM [2]: -3.3%
- Eurofins Safety Screen 44 inhibition [3]: <5% inhibition (low promiscuity)
- Eurofins Safety Screen 44 result [3]: no significant inhibition
- inhibition at 10 µM [4]: 5.5%
- pIC50 [5]: 9.32
- inhibition at 10 µM [6]: -3%
- inhibition at 10 µM [7]: -1.1%
- inhibition at 10 µM [8]: 10.3%
- % Inhibition of Control Values [9]: 13.7%
- inhibition at 10 µM [10]: 12.2%
- inhibition at 10 µM [11]: -51.3%
- inhibition at 10 µM [12]: -0.5%
- inhibition at 10 µM (PDE3A (h)): -47.2%
- inhibition at 10 µM [13]: -12.6%
- inhibition at 10 µM [14]: -1.5%
- inhibition at 10 µM (COX2(h)): 4.4%
- inhibition at 10 µM (PDE4D2 (h)): -45.6%
- inhibition at 10 µM [15]: 16.8%
- inhibition at 10 µM [16]: -5.4%
- pIC50 (p-P70S6K Thr389): 9.85
- inhibition at 10 µM [17]: 0.6%
- inhibition at 10 µM [18]: -4.6%
- inhibition at 10 µM [19]: -15.7%
- inhibition at 10 µM [20]: -4.5%
- inhibition at 10 µM [21]: -9.4%
- inhibition at 10 µM [22]: -2.1%
- % Inhibition of Control Values [23]: 1.0%
